Columns and labels:
[1] = Hydrolysis of imines in deuterium oxide in the presence of co-surfactants; assay type: physicochemical; details: c0 10 mM
Experimental: The influence of the presence of (co-)surfactants on the hydrolysis of imines according to formula (I) was investigated by ^1H NMR spectroscopy in deuterium oxide (0.7 mL) as described in Example 5 with an initial imine concentration of 10 mM and 4 wt % of an additional surfactant. The following surfactants were tested: sodium dodecyl sulfate (SDS), sodium laureth sulphate (Texapon® NSO IS; trademark from BASF and commercially available from BASF), hexadecyl-trimethyl-ammonium bromide (cetrimonium bromide), 2,5,8,11,14,17,20,23,26,29,32,35,38,41,44,47,50,53,56,59,62,65,68,71,74-pentacosaoxahexaheptacontan-76-yl stearate (PEG25Monostearate), (polyethylene glycol)9,10 4-(1,1,3,3-tetramethylbutyl)-phenyl ether (Triton® X-100; trademark from Dow Chemical and commercially available from Sigma Aldrich), polyoxyethylene 20 sorbitan monooleate (Tween® 80; trademark from Uniquema, ICI Americas Inc. and commercially available from Sigma Aldrich).

[2] = assay type: physicochemical; details: pH 2.6
Excerpt: Compounds according to formula (I) were included into citral containing microemulsions formed by mixing a buffer solution at pH=2.6 (48% citric acid and 3.2% NaOH in water), Tween® 80 (trademark from Uniquema, ICI Americas Inc. and commercially available from Sigma Aldrich) and citral in the quantities listed in Table 10. […] The two solutions contained equimolar amounts of citral. At different time intervals the different formulations (0.305 g) were extracted by adding an aqueous solution of NaCl (15%, 2.745 g) and iso-octane (3.050 g). The mixtures were stirred (at 500 rpm for 10 min) and left equilibrating (5 min) to separate into two well distinguished phases. The phases were carefully separated and the organic phase (20 μL) analysed by GC/MS. GC/MS analyses were carried out on an Agilent 6890N Network GC system and an Agilent 5973 Network MS. […] Citral was analyzed by single ion monitoring and the extracted citral concentrations were determined by external standard calibration. […] The citral concentration measured in the extraction experiments as a function of time (FIG. 1), were fitted with Equation 2. The degradation rates, as well as the initial maximum citral concentrations were determined.

[3] = Surface tension of aqueous solutions (Kruss DSA 10 MK2 Drop Shape Analysis); assay type: physicochemical; details: for surface tension / surface activity: aqueous solution 1% wt, FIG. 2; for critical concentration (CMC) and self-aggregation in micelles: surface tension as function of concentration, FIG. 3
Experimental: The surface activity of aqueous solutions of typical well known surfactants at concentration of 1% wt was measured by Kruss DSA 10 MK2 Drop Shape Analysis System. In parallel, the HLB value of the surfactant molecules was calculated by using ECL model. FIG. 2 represented the correlation between the surface tension and the calculated HLB values (black circles). The curve reached a saturation value at HLB 18, which was the limit of the HLB range for the compound of formula (I). All molecules having HLB higher than 18 are not part of the present invention due to a strong water solubility and an insufficient surface activity.
The surface tension of compounds of formula (I): Imine F, Imine D, Imine E, Imine B and of comparative Imine C1, was measured as well and the data were added to FIG. 2 (grey squares). […] The HLB calculated for this molecule was higher than 18 and therefore out of the limits fixed in the present invention.
As a comparative example, the compound Imine C7 reported in Polymer 2014, vol. 55, pages 1443-1451 was synthetized (see Example 3 g)) and surface tension of the aqueous solution of 1% wt of this molecule was measured. The data was included in FIG. 2 (black triangle).
The surface tension as function of the concentration of Imine compounds F and C1 was measured and presented on FIG. 3.

[4] = Solubilizing capacity of imines for a model perfume in water; assay type: physicochemical; details: for Fragrance/Surfactant Weight Ratio: transparent solution of model perfume in water; for Imine: minimal value of surfactant necessary to obtain a transparent solution: water 9.0 g and model perfume 0.3 g
Experimental: Water (9.0 g) and the model perfume composition of Table 8 (0.3 g) are mixed under gentle agitation. The resulting solution is turbid. Imines of formula (I) are then added until a transparent solution was obtained. The ratio fragrance to surfactant indicates the solubilizing capacity of the imines wherein higher ratio indicates higher solubilizing capacity of the imine.

[5] = Equilibration of imines in deuterium oxide (1H NMR); assay type: physicochemical; details: conditions of Table 3
Experimental: (§1) The compounds according to formula (I) at different concentrations (c=10 . . . 500 mM) were individually dissolved in deuterium oxide (0.7 mL) at room temperature. The pD was measured and the hydrolysis of the imine was followed by ^1H NMR until an equilibrium was reached. The imine concentration at equilibrium was determined. Reactions with constant pD were either performed at unmodified pD (basic) or in a 4-(2-hydroxyethyl)-1-piperazineethanesulfonic acid (HEPES) buffer (slightly acidic). The data summarized in Table 3 were obtained from the measurements.

[6] = Kinetics of hydrolysis of imines in deuterium oxide (1H NMR); assay type: physicochemical; details: for order of hydrolysis kinetics: t1/2 versus initial concentration
Experimental: as §1

[7] = Hydrolysis of imines in model formulation with Texapon NSO IS; assay type: physicochemical; details: Texapon NSO IS 4 wt % in deuterium oxide, c0 10 mM
Experimental: To investigate the hydrolysis of the imines according to formula (I), a simple model formulation in deuterium oxide was prepared. Freeze-dried Texapon® NSO IS (trademark from BASF and commercially available from BASF) (4 wt %) was dissolved in deuterium oxide (95 wt %) at room temperature. The imine according to formula (I) (1 wt %) was added to the formulation at the beginning of the experiment (t=0), the pH was measured and the NMR measurements were started.

[8] = Hydrolysis of imines in model formulation with Hostapur SAS 60 and Genapol LA 70; assay type: physicochemical; details: Hostapur SAS 60 7 wt % and Genapol LA 70 17 wt % in deuterium oxide, c0 10 mM, pD 10.4
Experimental: A second aqueous surfactant solution was prepared by dissolving freeze-dried sodium C14-17 sec-alkyl sulphonate (Hostapur® SAS 60; trademark from Clariant GmbH and commercially available from Clariant GmbH; 7 wt %) and freeze-dried ethoxylated C12-16 alcohols (Genapol® LA 70; trademark from Clariant GmbH and commercially available from Clariant GmbH; 17 wt %) in deuterium oxide (75 wt %) at room temperature. Then, sodium deuteroxide 40% in deuterium oxide was added until reaching a pH of 10. The imine according to formula (I) (1 wt %) was added to the formulation at the beginning of the experiment (t=0), the pH was measured and the NMR measurements were started.

COCCOCCOCCOCCOCCOCCOCCOCCOCCOCCOCCOCCOCCOCCOCCOCCOCCOCCOCCOCCOCCOCCOCCOCCOCCOCCOCCOCCOCCOCCOCCOCC(C)OCC(C)OCC(C)OCC(C)OCC(C)OCC(C)OCC(C)OCC(C)OCC(C)OCC(C)N=CC=C(C)CCC=C(C)C (mixture of isomers) [Imine E]
concentration at equilibrium (ceq) ([1]; co-surfactant PEG25Monostearate 4 wt %, pD 10.4): 7500 µM | concentration at equilibrium (ceq) ([1]; co-surfactant PEG25Monostearate 4 wt %, phosphate buffer (pD 4.4)): 6400 µM | concentration at equilibrium (ceq) ([1]; co-surfactant none, pD 10.4): 2800 µM | decrease of the citral degradation rate [2]: 1.53 times | surface tension / surface activity [3]: strong surface activity | Fragrance/Surfactant Weight Ratio [4]: 9.3 | Imine: minimal value of surfactant necessary to obtain a transparent solution [4]: 23.14%

COCCOCCOCCOCCOCCOCCOCCOCCOCCOCCOCCOCCOCCOCCOCCOCCOCCOCCOCCOCC(C)OCC(C)OCC(C)N=Cc1ccc(O)c(OC)c1 (mixture of isomers) [Imine C1, reference compound]
surface tension / surface activity [3]: high surface tension value | critical concentration (CMC) and self-aggregation in micelles [3]: absence of CMC and self-aggregation | stability of the imine at equilibrium [5]: mostly cleaved

CCCCCCC(C=NCCOCCOCCOCCOCCOCCOCCOCCOCCOCCOCCOC)=Cc1ccccc1 [Imine C5]
half-time of hydrolysis ([6]; at all concentrations): around 5 h | half-time of hydrolysis (t1/2) ([6]; c0 10 mM, pD 10.5): 4.56 h | initial rate of hydrolysis (v0) ([6]; c0 10 mM, pD 10.5): 14.8 10^−3 mM/min | half-time of hydrolysis (t1/2) ([6]; c0 25 mM, pD 10.5): 8.4 h | initial rate of hydrolysis (v0) ([6]; c0 25 mM, pD 10.5): 23.7 10^−3 mM/min | half-time of hydrolysis (t1/2) ([6]; c0 100 mM, pD 10.4): 5.28 h | initial rate of hydrolysis (v0) ([6]; c0 100 mM, pD 10.4): 856 10^−3 mM/min | order of hydrolysis kinetics [6]: pseudo-first order kinetics | half-time of hydrolysis (t1/2) ([7]; pD 10.5): 4.3 h | initial rate of hydrolysis (v0) ([7]; pD 10.5): 35.4 10^−3 mM/min

CCCCCCCC=CCCC=NC(C)COC(C)COC(C)COC(C)COC(C)COC(C)COC(C)COC(C)COC(C)COC(C)COCCOCCOCCOCCOCCOCCOCCOCCOCCOCCOCCOCCOCCOCCOCCOCCOCCOCCOCCOCCOCCOCCOCCOCCOCCOCCOCCOCCOCCOCCOCCOC (mixture of isomers) [Imine G]
Fragrance/Surfactant Weight Ratio [4]: 5.3 | Imine: minimal value of surfactant necessary to obtain a transparent solution [4]: 14.68%

COCCOCCOCCOCCOCCOCCOCCOCCOCCOCCOCCOCCOCCOCCOCCOCCOCCOCCOCCOCC(C)OCC(C)OCC(C)N=CC=C(C)CCC=C(C)C (mixture of isomers) [Imine D]
concentration at equilibrium (ceq) ([1]; co-surfactant Certrimmonium bromide 4 wt %, pD 10.5): 4750 µM | concentration at equilibrium (ceq) ([1]; co-surfactant PEG25Monostearate 4 wt %, pD 10.5): 2790 µM | concentration at equilibrium (ceq) ([1]; co-surfactant SDS 4 wt %, pD 10.5): 8930 µM | concentration at equilibrium (ceq) ([1]; co-surfactant Texapon NSO IS 4 wt %, pD 10.5): 5960 µM | concentration at equilibrium (ceq) ([1]; co-surfactant none, pD 10.5): 2950 µM | surface tension / surface activity [3]: strong surface activity | Fragrance/Surfactant Weight Ratio [4]: 5.2 | Imine: minimal value of surfactant necessary to obtain a transparent solution [4]: 14.36%

CCCCCCC(C=NCCc1ccc(OCCOCCOCCOCCOCCOCCOCCOCCOCCOCCOCCOC)cc1)=Cc1ccccc1 [Imine A]
half-time of hydrolysis t1/2 (est.) [8]: 42.5 h | half-time of hydrolysis (t1/2) ([6]; c0 10 mM, pD 10.1): 59.5 h | initial rate of hydrolysis (v0) ([6]; c0 10 mM, pD 10.1): 1.3 10^−3 mM/min | half-time of hydrolysis (t1/2) ([7]; pD 10.6): 9.2 h

CCCCCCC(C=NC(C)COC(C)COC(C)COC(C)COC(C)COC(C)COC(C)COC(C)COC(C)COC(C)COCCOCCOCCOCCOCCOCCOCCOCCOCCOCCOCCOCCOCCOCCOCCOCCOCCOCCOCCOCCOCCOCCOCCOCCOCCOCCOCCOCCOCCOCCOCCOC)=Cc1ccccc1 (mixture of isomers) [Imine C]
order of hydrolysis kinetics [6]: pseudo-zero order kinetics | half-time of hydrolysis (t1/2) ([7]; pD 10.5): 17.5 h | Fragrance/Surfactant Weight Ratio [4]: 4.0 | Imine: minimal value of surfactant necessary to obtain a transparent solution [4]: 11.43%

CCCCCCCC=CCCC=NC(C)COC(C)COC(C)COCCOCCOCCOCCOCCOCCOCCOCCOCCOCCOCCOCCOCCOCCOCCOCCOCCOCCOCCOC (mixture of isomers) [Imine F]
surface tension / surface activity [3]: strong surface activity | critical concentration (CMC) and self-aggregation in micelles [3]: existence of critical concentration (CMC) | Fragrance/Surfactant Weight Ratio [4]: 2.7 | Imine: minimal value of surfactant necessary to obtain a transparent solution [4]: 7.92%
